Reference: the supplement of paper PMC10307832

Compound: CC1=C(C(=O)N2C=CSC2=N1)CCN3CCC(=C(C4=CC=CC=C4)C5=CC=C(C=C5)F)CC3
Experiment: relative viability (nuclei count vs DMSO), 5 days (fraction); higher = more cells survive
How it was run: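 Only plates meeting two conditions passed: control CV below 25% and at least one doubling. Lung cancer cell lines, kept overnight at 37 °C in 1536-well plates, were pinned with five library-drug doses (not always all listed) √10 apart on vehicle-anchored plates and grown 5 days without medium change. A one-step fix, permeabilisation and Hoechst stain preceded 4× imaging and MetaXpress nuclear counting. Viability equals treated-well nuclei divided by vehicle-well nuclei, as the median over plates.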

RERF-LC-KJ
relative viability (0.08 µM): 0.932
relative viability (0.253 µM): 1.01
relative viability (0.8 µM): 0.964
relative viability (2.53 µM): 0.989
relative viability (8 µM): 0.662

NCI-H1299
relative viability (0.08 µM): 1.08
relative viability (0.253 µM): 1
relative viability (0.8 µM): 1
relative viability (2.53 µM): 1.01
relative viability (8 µM): 0.714

HCC-15
relative viability (0.08 µM): 0.955
relative viability (0.253 µM): 1.14
relative viability (0.8 µM): 1.03
relative viability (2.53 µM): 0.991
relative viability (8 µM): 0.725

NCI-H1650
relative viability (0.08 µM): 0.794
relative viability (0.253 µM): 0.982
relative viability (0.8 µM): 0.875
relative viability (2.53 µM): 0.997
relative viability (8 µM): 0.642

NCI-H650
relative viability (0.08 µM): 0.853
relative viability (0.253 µM): 0.963
relative viability (0.8 µM): 0.904
relative viability (2.53 µM): 1.1
relative viability (8 µM): 0.816

LU99A
relative viability (0.08 µM): 1.13
relative viability (0.253 µM): 0.99
relative viability (0.8 µM): 0.88
relative viability (2.53 µM): 0.972
relative viability (8 µM): 0.89

SK-MES-1
relative viability (0.08 µM): 1.02
relative viability (0.253 µM): 1.01
relative viability (0.8 µM): 1.03
relative viability (2.53 µM): 1.09
relative viability (8 µM): 0.692

A-427
relative viability (0.08 µM): 0.983
relative viability (0.253 µM): 1.08
relative viability (0.8 µM): 0.945
relative viability (2.53 µM): 1.04
relative viability (8 µM): 0.939

NCI-H727
relative viability (0.08 µM): 0.712
relative viability (0.253 µM): 1.03
relative viability (0.8 µM): 0.896
relative viability (2.53 µM): 1.06
relative viability (8 µM): 0.687

HCC-827
relative viability (0.08 µM): 1.02
relative viability (0.253 µM): 1.1
relative viability (0.8 µM): 1.04
relative viability (2.53 µM): 1.05
relative viability (8 µM): 0.943

NCI-H2087
relative viability (0.08 µM): 0.878
relative viability (0.253 µM): 1.22
relative viability (0.8 µM): 1.13
relative viability (2.53 µM): 0.933
relative viability (8 µM): 0.62

NCI-H2228
relative viability (0.08 µM): 1.02
relative viability (0.253 µM): 0.978
relative viability (0.8 µM): 1.15
relative viability (2.53 µM): 1.1
relative viability (8 µM): 0.597

NCI-H1792
relative viability (0.08 µM): 0.759
relative viability (0.253 µM): 0.825
relative viability (0.8 µM): 0.942
relative viability (2.53 µM): 0.856
relative viability (8 µM): 0.403

LXF-289
relative viability (0.08 µM): 0.952
relative viability (0.253 µM): 1.1
relative viability (0.8 µM): 1.03
relative viability (2.53 µM): 1.03
relative viability (8 µM): 0.893

NCI-H1915
relative viability (0.08 µM): 1.07
relative viability (0.253 µM): 1
relative viability (0.8 µM): 1.01
relative viability (2.53 µM): 1.01
relative viability (8 µM): 0.732

NCI-H1993
relative viability (0.08 µM): 0.972
relative viability (0.253 µM): 0.816
relative viability (0.8 µM): 0.862
relative viability (2.53 µM): 1.03
relative viability (8 µM): 0.866

HARA
relative viability (0.08 µM): 1.07
relative viability (0.253 µM): 1.5
relative viability (0.8 µM): 1.06
relative viability (2.53 µM): 0.961
relative viability (8 µM): 0.745

NCI-H23
relative viability (0.08 µM): 1.06
relative viability (0.253 µM): 1.06
relative viability (0.8 µM): 0.857
relative viability (2.53 µM): 0.964
relative viability (8 µM): 0.718

BEN
relative viability (0.08 µM): 0.886
relative viability (0.253 µM): 1
relative viability (0.8 µM): 1
relative viability (2.53 µM): 1.07
relative viability (8 µM): 0.856

COR-L23
relative viability (0.08 µM): 0.883
relative viability (0.253 µM): 1.16
relative viability (0.8 µM): 1.22
relative viability (2.53 µM): 1.19
relative viability (8 µM): 0.519

ABC-1
relative viability (0.08 µM): 1.04
relative viability (0.253 µM): 0.858
relative viability (0.8 µM): 0.871
relative viability (2.53 µM): 0.888
relative viability (8 µM): 0.592

HCC-78
relative viability (0.08 µM): 0.833
relative viability (0.253 µM): 1.08
relative viability (0.8 µM): 0.943
relative viability (2.53 µM): 0.954
relative viability (8 µM): 0.806

NCI-H2170
relative viability (0.08 µM): 0.768
relative viability (0.253 µM): 0.9
relative viability (0.8 µM): 1.02
relative viability (2.53 µM): 1
relative viability (8 µM): 0.697

LCLC-97TM1
relative viability (0.08 µM): 0.921
relative viability (0.253 µM): 1.07
relative viability (0.8 µM): 1.02
relative viability (2.53 µM): 0.874
relative viability (8 µM): 0.91

NCI-H2126
relative viability (0.08 µM): 0.966
relative viability (0.253 µM): 0.991
relative viability (0.8 µM): 1.05
relative viability (2.53 µM): 1.04
relative viability (8 µM): 0.914

NCI-H358
relative viability (0.08 µM): 0.802
relative viability (0.253 µM): 0.921
relative viability (0.8 µM): 0.978
relative viability (2.53 µM): 1.2
relative viability (8 µM): 0.639

NCI-H1734
relative viability (0.08 µM): 0.975
relative viability (0.253 µM): 1.08
relative viability (0.8 µM): 0.976
relative viability (2.53 µM): 0.955
relative viability (8 µM): 0.62

EKVX
relative viability (0.08 µM): 0.818
relative viability (0.253 µM): 0.984
relative viability (0.8 µM): 1.06
relative viability (2.53 µM): 1.09
relative viability (8 µM): 0.711

NCI-H2085
relative viability (0.08 µM): 1
relative viability (0.253 µM): 1.07
relative viability (0.8 µM): 1.04
relative viability (2.53 µM): 0.973
relative viability (8 µM): 0.82

NCI-H1437
relative viability (0.08 µM): 0.918
relative viability (0.253 µM): 1.02
relative viability (0.8 µM): 1.02
relative viability (2.53 µM): 1.09
relative viability (8 µM): 0.775

NCI-H1355
relative viability (0.08 µM): 0.961
relative viability (0.253 µM): 1
relative viability (0.8 µM): 1.04
relative viability (2.53 µM): 0.981
relative viability (8 µM): 0.757

NCI-H596
relative viability (0.08 µM): 1.02
relative viability (0.253 µM): 0.964
relative viability (0.8 µM): 0.981
relative viability (2.53 µM): 0.952
relative viability (8 µM): 0.852

NCI-H322M
relative viability (0.08 µM): 0.89
relative viability (0.253 µM): 0.91
relative viability (0.8 µM): 0.877
relative viability (2.53 µM): 1.09
relative viability (8 µM): 1.08

LC-2-ad
relative viability (0.08 µM): 1.09
relative viability (0.253 µM): 0.994
relative viability (0.8 µM): 0.94
relative viability (2.53 µM): 1.04
relative viability (8 µM): 0.865

ChaGo-K-1
relative viability (0.08 µM): 0.86
relative viability (0.253 µM): 1.1
relative viability (0.8 µM): 1.06
relative viability (2.53 µM): 1.09
relative viability (8 µM): 0.623

NCI-H661
relative viability (0.08 µM): 0.851
relative viability (0.253 µM): 1
relative viability (0.8 µM): 1.01
relative viability (2.53 µM): 1.02
relative viability (8 µM): 0.764

LCLC-103H
relative viability (0.08 µM): 1.04
relative viability (0.253 µM): 1.06
relative viability (0.8 µM): 0.957
relative viability (2.53 µM): 1.04
relative viability (8 µM): 0.796

HOP-62
relative viability (0.08 µM): 1.01
relative viability (0.253 µM): 1.02
relative viability (0.8 µM): 0.988
relative viability (2.53 µM): 0.946
relative viability (8 µM): 0.577
